Structures can show the parent of a compound that is named as a salt.
System: jejunum
Experiment: Transcriptional profiling on Affymetrix GeneChips, single dose, naïve mice: jejunum
Format: in vivo, C57BL/6 mice
Conditions: 100MMF-vs-Veh
Procedure: Treated mice were sacrificed at 2, 7, or 12 hours. Tissues (liver, spleen, kidney, jejunum, cortex, hippocampus, striatum and whole blood) were collected and analyzed by transcriptional profiling on mouse Affymetrix GeneChips.
Tissues (liver, spleen, kidney, jejunum, cortex, hippocampus, striatum and whole blood) were collected and analyzed by transcriptional profiling on mouse Affymetrix GeneChips.
Animals were exposed to CO2 and whole blood collected via cardiac puncture. Two 100 μl aliquots of whole blood were collected in 1.5 mL microcentrifuge tubes and snap frozen in liquid nitrogen. Peripheral (liver, spleen, kidney and jejunum) and CNS brain (cerebellum, hippocampus, striatum and cortex) tissues were harvested and snap frozen in liquid nitrogen, with special care taken to collect tissues of similar size and from the same location. All samples were stored at −80° C. until RNA extraction was conducted.
For RNA preparation, frozen tissues were placed in 2 mL RNAse-free 96-well blocks with 1.5 mL QIAzol Lysis Reagent (QIAgen) and a 3.2 mm stainless steel bead (BioSpec Products, Bartlesville, Okla.). Tissues were disrupted for four cycles of 45 seconds in a Mini-Beadbeater (Biospec Products). RNA was extracted in chloroform and the aqueous phase was mixed with an equal volume of 70% ethanol. Extracted RNA was applied to RNeasy 96 plates and purified by the spin method according to the manufacturer's protocol (RNeasy 96 Universal Tissue Protocol, QIAgen, Hilden Germany).
Automated sample amplifications and biotin labelings were carried out using the NuGEN Ovation RNA Amplification system V2 (Cat #3100), Ovation WB reagent (Cat #1300) and Encore Biotin module (Cat #4200) (NuGEN Technologies, Inc, San Carlos, Calif.) according to manufacturer's recommendations using an Arrayplex automated liquid handler (Beckman Coulter, Indianapolis, Ind.). Two micrograms of biotin labeled sscDNA probe were hybridized to Affymetrix GeneChip Affymetrix HT_MG-430_PM plate arrays with modified conditions as described in Allaire et al. Washing and staining of the hybridized arrays were completed as described in the GeneChip Expression analysis technical manual for HT plate arrays using the Genechip® Array Station (Affymetrix, Santa Clara, Calif.) with modifications as described in Allaire et al. The processed GeneChip® plate arrays were scanned using GeneTitan scanner (Affymetrix, Santa Clara, Calif.).
Affymetrix scans were subject to quality control (QC) measures. These tests included a visual inspection of the distribution of raw signal intensities and an assessment of RNA degradation, relative log expression (RLE), and normalized unsealed standard error (NUSE). All sample scans that passed these QC metrics were included in the analysis.
All CEL files were subjected to GC-content-based Robust Multi-array Average (GCRMA) normalization (version 2.20.0) (Irizarry R A, et al. Nucleic Acids Res 2003; 31:e15; Li C, et al. Genome Biol 2001; 2:[…]0032). Expression levels were log (base 2) transformed.
All calculations and analyses were carried out using R (version 2.11.1) and Bioconductor computational tools (Gentleman R. Springer Science+Business Media 2005).

COC(=O)/C=C/C(=O)O [MMF, monomethyl fumarate]
FC Slc2a1 (1426599_PM_a_at) (2 h): 1.53
FC Slc2a1 (1426600_PM_at) (2 h): 1.68
FC Slc40a1 (1417061_PM_at) (2 h): 2.73
FC Slc48a1 1450410_PM_a_at (2 h): 1.62
FC Slfn2 (1450165_PM_at) (2 h): −1.82
FC Srxn1 (1425351_PM_at) (2 h): 1.77
FC St3gal6 (1449078_PM_at) (2 h): 1.52
FC Tkt (1436605_PM_at) (2 h): 1.73
FC Tnfaip3 1433699_PM_at (2 h): −1.67
FC Tox3 (1436600_PM_at) (2 h): 1.81
FC Ugt2b5 (1419622_PM_at) (2 h): 3.13
FC Ugt2b35 (1439624_PM_at) (2 h): 3.08
FC 1110020G09Rik (1437287_PM_at) (7 h): 1.74
FC 1447411_PM_at (7 h): 1.97
FC 9130221J17Rik (1443159_PM_at) (7 h): 1.61
FC 9430069I07Rik (1431672_PM_at) (7 h): 3.66
FC Abcc2 (1450109_PM_s_at) (7 h): 1.51
FC Abcc3 (1428988_PM_at) (7 h): 2.26
FC Acsm5 (1437662_PM_at) (7 h): 1.71
FC Acss2 (1446542_PM_at) (7 h): 2.06
FC Akr1b8 (1448894_PM_at) (7 h): 14.16
FC Akr1c12 (1450455_PM_s_at) (7 h): 1.58
FC Akr1c13 (1418672_PM_at) (7 h): 1.86
FC Akr1c19 (1455454_PM_at) (7 h): 2.39
FC Aldh1a7 (1418601_PM_at) (7 h): 1.86
FC Areg (1421134_PM_at) (7 h): 2.93
FC Asns 1451095_PM_at (7 h): 1.60
FC Blvrb (1451386_PM_at) (7 h): 1.55
FC Capn13 (1437960_PM_at) (7 h): −1.75
FC Cbr1 (1460196_PM_at) (7 h): 1.83
FC Cbr3 (1427912_PM_at) (7 h): 40.98
FC Ces1e (1419510_PM_at) (7 h): 2.44
FC Ces1f (1424266_PM_s_at) (7 h): 5.19
FC Ces1g (1449486_PM_at) (7 h): 9.24
FC Ddc (1426215_PM_at) (7 h): 2.03
FC Dppa5a (1416552_PM_at) (7 h): 1.88
FC Enkur (1428960_PM_at) (7 h): −1.56
FC Entpd5 (1451765_PM_a_at) (7 h): 1.60
FC Esd (1438488_PM_at) (7 h): 2.15
FC Fam162a (1451385_PM_at) (7 h): 1.67
FC G6pd2 (1422327_PM_s_at) (7 h): 2.06
FC G6pdx (1448354_PM_at) (7 h): 1.76
FC Gclc (1424296_PM_at) (7 h): 2.87
FC Gclc (1455959_PM_s_at) (7 h): 2.48
FC Gm14446 (1435529_PM_at) (7 h): −1.65
FC Gpx2 (1449279_PM_at) (7 h): 1.53
FC Gsr (1421816_PM_at) (7 h): 3.13
FC Gss (1441931_PM_x_at) (7 h): 2.20
FC Gss (1448273_PM_at) (7 h): 2.25
FC Gsta2 (1421040_PM_a_at) (7 h): 9.84
FC Gsta2 (1421041_PM_s_at) (7 h): 1.90
FC Gsta3 (1423436_PM_at) (7 h): 5.71
FC Gsta3 (1423437_PM_at) (7 h): 5.75
FC Gstm1 (1416416_PM_x_at) (7 h): 3.95
FC Gstm1 (1425627_PM_x_at) (7 h): 4.80
FC Gstm1 (1448330_PM_at) (7 h): 4.23
FC Gstm2 (1416411_PM_at) (7 h): 2.09
FC Gstm3 (1427473_PM_at) (7 h): 3.46
FC Gstm3 (1427474_PM_s_at) (7 h): 1.99
FC Gstm4 (1424835_PM_at) (7 h): 5.75
FC Gstm6 (1422072_PM_a_at) (7 h): 2.23
FC Gstm7 (1419072_PM_at) (7 h): 1.97
FC Htatip2 (1451814_PM_a_at) (7 h): 1.68
FC Ifit1 (1450783_PM_at) (7 h): −1.95
FC Matn2 (1419442_PM_at) (7 h): 1.59
FC Matn2 (1455978_PM_a_at) (7 h): 2.21
FC Me1 (1416632_PM_at) (7 h): 2.01
FC Nqo1 (1423627_PM_at) (7 h): 2.63
FC Pgd 1423706_PM_a_at (7 h): 1.55
FC Pgm2 (1451149_PM_at) (7 h): 1.54
FC Pir (1429001_PM_at) (7 h): 5.12
FC Prss8 (1418320_PM_at) (7 h): 1.75
FC Rsad2 (1421009_PM_at) (7 h): −1.84
FC Rsad2 (1436058_PM_at) (7 h): −1.81
FC Rtp4 (1418580_PM_at) (7 h): −1.61
FC Setd4 (1425239_PM_at) (7 h): 2.27
FC Setd4 (1435405_PM_at) (7 h): 1.76
FC Setd4 (1460373_PM_a_at) (7 h): 1.77
FC Slc5a4b (1422757_PM_at) (7 h): 1.79
FC Slc35e3 (1428805_PM_at) (7 h): 1.67
FC Txnrd1 (1424486_PM_a_at) (7 h): 2.07
FC Txnrd1 (1424487_PM_x_at) (7 h): 1.93
FC Ugt2b5 (1419622_PM_at) (7 h): 4.50
FC Ugt2b35 (1439624_PM_at) (7 h): 3.31
FC Ugt2b36 (1455595_PM_at) (7 h): 2.50
FC Acss2 (1446542_PM_at) (12 h): 1.52
